Assay results from publication PMC4490130 (Cancer research, 2015).

Target: Pim-1 (Homo sapiens, UniProt P11309)
Test: X-ray crystal structure
Format: biochemical

O=C/C=C/c1ccccc1O [2′-HCA] showed an IC50 of roughly 3 µM.
